In patent US20140288090A1, “N-ARYLYLMETHYLINDAZOLE MODULATORS OF PPARG” (priority 2011, published 2014):
Where two headings read alike, the source gives them in different places.

Assays:
[1] = target: T1, GST-PPARG-LBD (Homo sapiens, UniProt P37231); test: Lanthascreen PPARG competitive binding assay (Invitrogen)
T1 construct: A mixture of 5 nM GST-PPARG-LBD; purchased Invitrogen
T1 sequence (P37231 238-503 limits assumed): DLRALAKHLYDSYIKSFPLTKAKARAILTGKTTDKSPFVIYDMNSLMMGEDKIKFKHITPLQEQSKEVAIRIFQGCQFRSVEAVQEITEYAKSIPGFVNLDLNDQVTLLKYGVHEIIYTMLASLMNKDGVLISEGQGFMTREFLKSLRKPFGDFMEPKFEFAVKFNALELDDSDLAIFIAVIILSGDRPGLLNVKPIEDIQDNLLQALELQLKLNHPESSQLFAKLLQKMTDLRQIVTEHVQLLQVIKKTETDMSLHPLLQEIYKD
Method: The assay was performed according to manufacturer protocol. A mixture of 5 nM GST-PPARG-LBD, 5 nM Tb-GST-antibody, 5 nM Fluormone Pan-PPAR. Green, and serial dilutions of the experimental compound, beginning at 10 μM downwards, was added to wells of black 384-well low-volume plates (Greiner) to a total volume of 18 μL. All dilutions were made in TR-FRET assay buffer C. DMSO at 2% final concentration was used as a no-ligand control. Experiment was performed in triplicate, and incubated for 2 hours in the dark prior to assay read in Perkin Elmer ViewLux ultra HTS microplate reader. FRET signal was measured by excitation at […] and emission at 520 nm for fluorcscein and 490 nm for terbium. Fold change over DMSO was calculated using GraphPad Prism Software (La Jolla, Calif.) by calculating 520 nm/490 nm ratio. Graphs were plotted as fold change of FRET signal for compound treatment over DMSO-only control.

[2] = system: PPARG (murine PPARg2 or full-length human PPARg co-transfected into COS-1 cells); test: Cell-based transactivation assay (3x PPRE-luciferase reporter, COS-1 cells); details: PPRE::Luc reporter
Method: PPRE is a DNA that contains a binding site for PPARG; thus PPRE is a PPAR response element, used herein as a promoter reporter. The binding site is a DR1 response element with the sequence [NT] repeated 3 times in tandem and then fused to a construct for luciferase. Thus, PPRE is the basis of the cell based transactivation assay described below. The plasmid DNA is co-transfected along with a plasmid for PPARG into COS-1 cells. After an overnight incubation, cells are treated with DMSO or compounds. […] Transfected cells were plated in white Perkin Elmer 384-well plates and incubated 4 hours. […] After 18 hour incubation, treated cells were developed with Brite Lite Plus (Perkin Elmer) and read in 384-well Luminescence Perkin Elmer EnVision Multilabel plate reader. Graphs were plotted in triplicate in GraphPad Prism Software as fold change of treated cells over DMSO control cells.

[3] = Table 3, Lantha 1, read-out: IC50 (nM) Lantha 1
[4] = Table 3, Lantha 2, read-out: IC50 (nM) Lantha 2

IC50 [1, 3] [nM]	IC50 [1, 4] [nM]	Structure (SMILES)	transactivation of the reporter relative to rosiglitazone response [2]	activation of the PPRE reporter [2]
359	432	COCCNC(=O)c1ccc2c(c1)c(C(C)C)nn2Cc1ccc(-c2ccccc2C(=O)O)cc1 [compound 46]		
204	176	Cc1nn(Cc2ccc(-c3ccccc3C(=O)O)cc2)c2ccc(C(=O)NC3CCCCCC3)cc12 [compound 24]		
	41.7	Cc1nn(Cc2ccc(-c3ccccc3C(=O)O)cc2)c2ccc(C(=O)N[C@@H](C)C3CCCCC3)cc12 [compound 31]		
	4770	COCCNC(=O)c1ccc2c(c1)c(C)nn2Cc1cccc(C#N)c1 [compound 58]		
	21.6	Cc1nn(Cc2cccc(O[C@H](C)C(=O)O)c2)c2ccc(C(=O)N[C@@H](C)c3ccc(Br)cc3)cc12 [compound 54]		
133	259	CC(C)c1nn(Cc2ccc(-c3ccccc3C(=O)O)cc2)c2ccc(C(=O)NC3CCCC3)cc12 [compound 48]		
255	82.8	Cc1nn(Cc2ccc(-c3ccccc3C(=O)O)cc2)c2ccc(C(=O)NC3CCC(C)CC3)cc12 (centres unmarked) [compound 25]		
4420	344	CCOCCNC(=O)c1ccc2c(c1)c(C)nn2Cc1ccc(-c2ccccc2C(=O)O)cc1 [compound 36]		
	13	CC[C@H](NC(=O)c1ccc2c(c1)c(C)nn2Cc1ccc(-c2ccccc2C(=O)O)cc1)c1ccccc1 [compound 43]		
	2.6	Cc1nn(Cc2ccc(-c3ccccc3-c3nnn[nH]3)cc2)c2ccc(C(=O)N[C@@H](C)c3ccc(Br)cc3)cc12 [compound 41]		
	0.579	CCC(NC(=O)c1ccc2c(c1)c(C)nn2Cc1ccc(-c2ccccc2C(=O)O)cc1)c1ccccc1 (centres unmarked) [compound 28]		
	235	Cc1nn(Cc2ccc(-c3ccccc3C(=O)O)cc2)c2ccc(C(=O)N[C@H]3COc4ccccc4C3)cc12 [compound 33]		
		COc1ccc(C(=O)n2c(C)c(Cc3cccc(O[C@@H](C)C(=O)O)c3)c3cc(OC(F)(F)F)ccc32)cc1 [MRL24]	about 25 % of rosiglitazone response	
120	166	C=C(C)c1nn(Cc2ccc(-c3ccccc3C(=O)O)cc2)c2ccc(C(=O)NCCOC)cc12 [compound 51]		
	31.8	Cc1ccc([C@H](C)NC(=O)c2ccc3c(c2)c(C)nn3Cc2ccc(-c3ccccc3C(=O)O)cc2)cc1 [compound 27]		
	877	Cc1nn(Cc2ccccn2)c2ccc(C(=O)N[C@@H](C)c3ccc(Br)cc3)cc12 [compound 57]		
40.8	37.7	Cc1nn(Cc2ccc(-c3ccccc3C#N)cc2)c2ccc(C(=O)N[C@@H](C)c3ccc(Br)cc3)cc12 [compound 40]		
11.5	870	Cc1nn(Cc2ccc(-c3ccccc3C(=O)O)cc2)c2ccc(C(=O)NC3CCCC3)cc12 [compound 21]		
9.83	2.8	Cc1nn(Cc2ccc(-c3ccccc3C(=O)O)cc2)c2ccc(C(=O)N[C@@H](C)c3ccc(Br)cc3)cc12 [compound 42]		

IC50 [1, 3] [nM]	IC50 [1, 4] [nM]	Structure (SMILES)	transactivation of the reporter relative to rosiglitazone response [2]	activation of the PPRE reporter [2]
	16.1	Cc1nn(Cc2ccc(-c3ccccc3C(N)=O)cc2)c2ccc(C(=O)N[C@@H](C)c3ccc(Br)cc3)cc12 [compound 39]		
23.4	94.8	Cc1nn(Cc2ccc(-c3ccccc3C(=O)O)cc2)c2ccc(C(=O)N[C@@H](C)c3cccc(C(C)C)c3)cc12 [compound 26]		
	147	Cc1nn(Cc2ccc(-c3ccccc3C(=O)O)cc2)c2ccc(C(=O)N[C@@H]3COc4ccccc4C3)cc12 [compound 34]		
	367	COC[C@H](C)NC(=O)c1ccc2c(c1)c(C)nn2Cc1ccc(-c2ccccc2C(=O)O)cc1 [compound 32]		
	32.2	Cc1nn(Cc2ccccc2C#N)c2ccc(C(=O)N[C@@H](C)c3ccc(Br)cc3)cc12 [compound 55]		
> 100	824	COCCNC(=O)c1ccc2c(c1)c(C)nn2Cc1ccc(-c2ccccc2C(=O)O)cc1 [compound 22]		
	18.8	Cc1nn(Cc2ccc(-c3ccccc3C(=O)O)cc2)c2ccc(C(=O)N[C@@H](C)c3cccc(C4CC4)c3)cc12 [compound 29]		
	21.6	Cc1nn(Cc2ccc(-c3ccccc3C(=O)O)cc2)c2ccc(C(=O)N[C@H](C)C3CCCCC3)cc12 [compound 30]		
	0.119	CC[C@H](NC(=O)c1ccc2c(c1)c(C(C)C)nn2Cc1ccc(-c2ccccc2C(=O)O)cc1)c1ccc(Br)cc1 [compound 49]		
		CN(CCOc1ccc(CC2SC(=O)NC2=O)cc1)c1ccccn1 (centres unmarked) [rosiglitazone]		about 5 fold
1.85	0.681	CCC(NC(=O)c1ccc2c(c1)c(C(C)C)nn2Cc1ccc(-c2ccccc2C(=O)O)cc1)c1ccccc1 (centres unmarked) [compound 47]		
713	932	Cc1nn(Cc2ccccc2)c2ccc(C(=O)N[C@@H](C)c3ccc(Br)cc3)cc12 [compound 52]		
118	82.8	Cc1nn(Cc2ccc(-c3ccccc3C(=O)O)cc2)c2ccc(C(=O)NCC3CCC(C)CC3)cc12 (centres unmarked) [compound 38]		
	1050	Cc1nn(Cc2ccc(Cl)cc2)c2ccc(C(=O)N[C@@H](C)c3ccc(Br)cc3)cc12 [compound 53]		
1820	1740	COCCCNC(=O)c1ccc2c(c1)c(C)nn2Cc1ccc(-c2ccccc2C(=O)O)cc1 [compound 37]		
76.3	84.1	CCCCNC(=O)c1ccc2c(c1)c(C)nn2Cc1ccc(-c2ccccc2C(=O)O)cc1 [compound 35]		
	144	Cc1nn(Cc2ccc(C3(C(=O)O)CC3)cc2)c2ccc(C(=O)N[C@@H](C)c3ccc(Br)cc3)cc12 [compound 56]		
19.9	15.2	CC(C)c1nn(Cc2ccc(-c3ccccc3C(=O)O)cc2)c2ccc(C(=O)N[C@@H](C)c3ccc(Br)cc3)cc12 [compound 50]		
560	562	Cc1nn(Cc2ccc(-c3ccccc3C(=O)O)cc2)c2ccc(C(=O)NC3CCCCC3)cc12 [compound 23]		
